Target: JNK3 kinase (Homo sapiens, UniProt P53779)
Test: JNK3 SPA assay (phosphorylation of GST-c-Jun, [γ-33P] ATP)
Assay type: biochemical
Conditions: 3.33 μM ATP, GST-c-Jun substrate, 30 minutes at room temperature
Method: JNK1, JNK27 JNK3—SPA Assay
A typical assay for testing the activity of compounds to inhibit JNK1, JNK2 and JNK3 enzymes is as follows: • 1. Compound is dissolved in DMSO to a convenient concentration and this is diluted in 10% DMSO to a five times concentrate of the desired starting concentration (frequently 1:100). • 2. 10 μl of 500 mM EDTA is added to alternative wells of the Opti-plate row, which will receive kinase reaction plus DMSO. This creates the negative control. • 3. For the JNK2 and JNK3 assay, compounds are prepared in six 2-fold dilutions with water and each concentration is tested in duplicate. For the JNK1 assay compounds are prepared in four 5-fold dilutions with water which are tested in triplicate. Controls are treated identically. • 4. 20 μl per well of each compound concentration is transferred to an Opti-plate, in duplicate. • 5. 30 μl (JNK2/3 SPA) or 50 μl (JNK1 SPA) of substrate solution (25 mM HEPES pH 7.5, 10 mM magnesium acetate with 3.33 μm ATP (JNK2/3) or 2 μM ATP (JNK1), approximately 7.5 kBq [γ-33P] ATP, GST-c-Jun, in water) is added to each well. • 6. 50 μl (JNK2/3 SPA) or 30 μl (JNK1 SPA) of kinase solution (JNK in 25 mM HEPES pH 7.5, 10 mM Mg Acetate) is added to each well.
• 7. The plate is incubated for 30 minutes at room temperature. • 8. 100 μl of bead/stop solution is added to each well (5 mg/ml glutathione-PVT-SPA beads, 40 µM ATP in PBS). • 9. Plates are sealed and incubated for 30 minutes at room temperature, centrifuged for 10 minutes at 2500 g and counted. • 10. The IC50 values are calculated as the concentration of the compound being tested at which the phosphorylation of c-Jun is decreased to 50% of the control value.

Sequence of JNK3 kinase (P53779 whole entry): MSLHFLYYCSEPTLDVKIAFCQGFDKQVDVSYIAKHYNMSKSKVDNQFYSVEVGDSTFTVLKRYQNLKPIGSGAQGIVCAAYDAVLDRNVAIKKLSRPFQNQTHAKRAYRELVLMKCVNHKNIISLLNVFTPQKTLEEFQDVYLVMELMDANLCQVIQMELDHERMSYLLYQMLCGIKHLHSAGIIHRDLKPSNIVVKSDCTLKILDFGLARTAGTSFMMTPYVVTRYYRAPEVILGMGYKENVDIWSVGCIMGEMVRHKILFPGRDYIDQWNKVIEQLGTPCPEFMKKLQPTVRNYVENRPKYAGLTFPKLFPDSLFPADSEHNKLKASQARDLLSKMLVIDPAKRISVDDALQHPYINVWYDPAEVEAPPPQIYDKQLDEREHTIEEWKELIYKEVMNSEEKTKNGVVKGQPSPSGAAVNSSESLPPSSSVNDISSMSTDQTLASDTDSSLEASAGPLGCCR

| IC50 [µM] | Compound |
| --- | --- |
| 0.78 | O=C(NNc1ccccc1)c1c[nH]c2ncc(-c3cccc(F)c3)cc12 |
| 0.85 | C#CCNC(=O)c1c[nH]c2ncc(-c3cccc(F)c3)cc12 |
| 0.52 | C#CCNC(=O)c1c[nH]c2ncc(-c3ccc(N(C)C)cc3)cc12 |
